System: normal cynomolgus monkeys
Experiment: GnRH antagonist plus fixed gonadotropin regimen (FSH/LH or FSH only) followed by hCG
Assay type: in vivo
Details: GnRH antagonist 1.0 mg/kg/day with gonadotropin 25 IU/day im, cycle days 3-9, versus gonadotropin-only controls
From the text: All of the groups received a fixed regimen of gonadotropin therapy for seven consecutive days (25 IU/day/im, cycle days 3-9) followed by hCG (1,000 IU/im) on cycle day 10.

(Ac-pClPhe^1,pClPhe^2, DTrp^3, DArg^6, DAla^10)GnRH HCl [GnRH antagonist]
variability in response to gonadotropin treatment: less

Reference: patent publication US4845077A, “Method of inducing ovulation” (Serono Laboratories, Inc., priority 1987, dated 1989)
